# Laboratory results reported in patent US11974988B2, “Neuroprotective compositions and methods of using the same” (The Board of Supervisors of Louisiana State Univer …, priority 2018, dated 2024).
# “Also recorded” adds a separate entry of the source.
# How the values were obtained:
# [1] = test system: organotypic hippocampal slice cultures; experiment: Oxygen-glucose deprivation (OGD) in organotypic hippocampal slice cultures, propidium iodide staining; assay type: cell-based, rat; conditions: 20 min OGD, PI 24 h later; SKA-41 30 μM, MK-801 20 μM, riluzole 30 μM, NBQX 10 μM/AP5 50 μM
# Procedure: OGD is an in vitro model for transient cerebral ischemia. In preliminary studies, we prepared hippocampal slice cultures from P7-8 rat pups. Experiments were performed at 14 DIV, when presynaptic Glu function is maximal and synapse formation and NMDAR subunit expression have reached a developmental stage sufficient to sensitize the slice to excitotoxic injury. Propidium iodide (PI), which binds to DNA in a nonspecific manner by penetrating damaged phospholipoid bilayers, was used to assess neural injury 24 h after OGD. […] SKA-41 was present 30 min prior to OGD, during OGD and during the 24 h recovery period.
# [2] = test system: hippocampal neurons of KA-treated rats; experiment: KA-induced status epilepticus model, hippocampal neurodegeneration (fluoro-jade B, NeuN); assay type: in vivo, rat; conditions: rat, in vivo
# From the text: (§1) In Aim 3, we treat male and female rats with the ‘best’ SKA-41 derivatives before and after injection of kainic acid (KA). The KA-induced status epilepticus (SE) model is a well-validated model of temporal lobe epilepsy (TLE), the major form of human epilepsy. The model allows studying the different stages between SE and the development of TLE including SE, the acute and latent stages of epileptogenesis and chronic epilepsy. The excitotoxin KA causes excessive Glu release in the hippocampus and selective destruction of inhibitory SOM interneurons in the hilus region of the dentate gyrus (DG) and loss of pyramidal neurons in the CA3 (esp), and also CA1 regions. We scaled up synthesis of SKA-41, 219, and SKA-378. The identity of the compounds was confirmed by ^1H- and ^13C-NMR and high-resolution mass spectrometry. Compound purity is determined by HPLC and no compounds with less then 98% purity were used. […] Rats were processed for immunohistochemistry 3 days after KA administration. As expected, we find that KA treatment induces significant neural damage (green cells) in the CA3 pyramidal neuron subfield and in neurons in the hilus (FIG. 20 Panel A), which are SOM containing GABAergic interneurons (not shown). Fluoro jade B is a high affinity fluorescent marker used for the localization of neuronal degeneration. […] In studies, we have also administered SKA-378 (30 mg/kg) one hr after the onset of stage IV seizures (SE), followed by another injection at 4 hr post SE and then once each day for 3 days. We find that SKA-378 is also neuroprotective under these conditions.
# as §1, with “with” for “with the ‘best’”, “(esp)” for “(esp),”, “were” for “was”, “We” for “As expected, we”, “23” for “20”, “Fluoro-jade” for “Fluoro jade”
smiles,measurement,setting,value
"Nc1nc(-c2ccc(OC(F)(F)F)cc2)cs1 [SKA-41, 4-(4-(Trifluoromethoxy)phenyl)thiazol-2-amine]",OGD-induced neural injury (PI staining),[1],completely prevents PI staining; also recorded: prevents OGD-induced neural injury
same,neuroprotection against Glu-induced excitotoxicity in the KA model of TLE,[2],neuroprotective
